Test system: asthma sufferer
Assay: Example E: inhalation aerosol for asthma
Format: in vivo, human
Details: 5.0% w/v aerosol, 0.01 mL sprayed into the mouth while inhaling
Experimental: An inhalation aerosol composition, according to the present invention, is made comprising: An asthma sufferer sprays 0.01 mL via a pump actuator into the mouth while inhaling.

With `COc1ccc(-c2ccc(S(=O)(=O)N(C)C(C(=O)O)C3CCN(CCc4ccccc4)CC3)cc2)cc1` (stereo not shown) [Example 17, [(4′-Methoxy-biphenyl-4-sulfonyl)-methyl-amino]-(1-phenethyl-piperidin-4-yl)-acetic Acid] the asthma symptoms was “Asthma symptoms are diminished”.

Reference: patent US6949545B2, “Heterocyclic side chain containing, n-substituted metalloprotease inhibitors” (The Procter & Gamble Company, priority 2000, dated 2005)
